Source: patent US20240025906A1 (NEURON23, INC., priority 2022, published 2024)
Where two headings read alike, the source gives them in different places.

Legend:
[1] = system: JAK1/TYK2 pSTAT5 (Tyr694/699) in THP-1 cell line; assay: IFNa-stimulated JAK1/TYK2 pSTAT5 (Tyr694/699) inhibition cellular assay, AlphaLISA; assay type: cell-based; conditions: Homo sapiens; THP-1 cells, IFNa-stimulated, AlphaLISA (Assay B); read-out: Cellular_THP1_IFNa-pSTATS_TYK2
Summary of the method: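 THP-1, 2e4 cells/well, HBSS; cpd 1 h 37 °C (10000–0.04 nM final, 6-fold, 8 pt); IFNa 100 ng/mL added, 30 min; lyse, freeze −80 °C; pSTAT5 AlphaLISA, 615 nm; 4PL IC50, bottom fixed 0, slope −1.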

TYK2 JH2 = target: T1, TYK2 JH2 (Homo sapiens, UniProt P29597); assay: TYK2 JH2 binding assay (KINOMEscan KdELECT competitive binding); conditions: TYK2 JH2 domain, read-out: Biochemical TYK2_DiscoverX_JH2_BND_Kd
T1 construct: purchased DiscoverX (KINOMEscan KdELECT service); host or cells: E. coli BL21-derived (T7 phage display) or HEK-293
T1 sequence (P29597 589-875 limits assumed): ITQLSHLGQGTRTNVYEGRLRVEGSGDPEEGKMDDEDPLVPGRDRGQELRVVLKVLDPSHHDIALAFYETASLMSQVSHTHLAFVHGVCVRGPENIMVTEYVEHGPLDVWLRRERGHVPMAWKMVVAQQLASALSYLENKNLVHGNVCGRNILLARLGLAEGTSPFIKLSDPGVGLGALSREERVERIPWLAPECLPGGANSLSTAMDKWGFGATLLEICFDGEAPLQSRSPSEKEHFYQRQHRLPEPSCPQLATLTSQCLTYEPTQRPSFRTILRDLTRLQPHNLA
Summary of the method: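 JH2-domain fragment, expressed as T7 phage tag in BL21-derived E. coli or DNA-tagged from HEK-293, competed with test compound against bead-immobilized biotinylated ligand in binding buffer (0.9% DMSO). 1 h shaking at room temperature; bound kinase eluted with 0.5 μM free ligand and quantified by qPCR. Kd from 11-point 3-fold dilutions.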

[2] = DiscoverX KINOMEscan KdELECT (Assay A)

Row | IC50 [1] [nM] | Kd (TYK2 JH2; [2]) [nM] | Kd (TYK2 JH2; KINOMEscan KdELECT (Assay A)) [nM] | SMILES
1 | ≤ 500 | ≤ 100 | – | CNc1ncc(-c2nc3ccc(C)cn3n2)c2cc(NC(=O)C3CCC3)ncc12 [Example 561, N-(5-(6-methyl-[1,2,4]triazolo[1,5-a]pyridin-2-yl)-8-(methylamino)-2,7-naphthyridin-3-yl)cyclobutanecarboxamide]
2 | ≤ 500 | ≤ 100 | – | CNc1ncc(-c2nc3ccc(C)cn3n2)c2cc(NC(=O)[C@H]3C[C@H]3C)ncc12 [Example 562, (1S,2R)-2-methyl-N-(5-(6-methyl-[1,2,4]triazolo[1,5-a]pyridin-2-yl)-8-(methylamino)-2,7-naphthyridin-3-yl)cyclopropane-1-carboxamide]
3 | ≤ 500 | ≤ 100 | – | CNc1ncc(-c2nc3ccc(N4C[C@H]5C[C@@H]4CO5)cn3n2)c2cc(NC(=O)C3(F)CC3)ncc12 [Example 563, N-(5-(6-((1R,4R)-2-oxa-5-azabicyclo[2.2.1]heptan-5-yl)-[1,2,4]triazolo[1,5-a]pyridin-2-yl)-8-(methylamino)-2,7-naphthyridin-3-yl)-1-fluorocyclopropane-1-carboxamide]
4 | ≤ 500 | ≤ 100 | – | [2H]C([2H])([2H])Nc1ncc(-c2nc3ccccn3n2)c2cc(NC(=O)[C@H]3C[C@H]3F)ncc12 [Example 566, (1R,2R)—N-(5-([1,2,4]triazolo[1,5-a]pyridin-2-yl)-8-((methyl-d3)amino)-2,7-naphthyridin-3-yl)-2-fluorocyclopropane-1-carboxamide]
5 | ≤ 500 | ≤ 100 | – | [2H]C([2H])([2H])Nc1ncc(-c2nc3ccccn3n2)c2cc(NC(=O)[C@@H]3C[C@@H]3F)ncc12 [Example 567, (1S,2S)—N-(5-([1,2,4]triazolo[1,5-a]pyridin-2-yl)-8-((methyl-d3)amino)-2,7-naphthyridin-3-yl)-2-fluorocyclopropane-1-carboxamide]
6 | ≤ 500 | ≤ 100 | – | [2H]C([2H])([2H])Nc1ncc(-c2nc3ccc(OC)cn3n2)c2cc(NC(=O)[C@H]3C[C@H]3F)ncc12 [Example 568, (1R,2R)-2-fluoro-N-(5-(6-methoxy-[1,2,4]triazolo[1,5-a]pyridin-2-yl)-8-((methyl-d3)amino)-2,7-naphthyridin-3-yl)cyclopropane-1-carboxamide]
7 | ≤ 500 | ≤ 100 | – | [2H]C([2H])([2H])Nc1ncc(-c2nc3ccc(OC)cn3n2)c2cc(NC(=O)[C@@H]3C[C@@H]3F)ncc12 [Example 569, (1S,2S)-2-fluoro-N-(5-(6-methoxy-[1,2,4]triazolo[1,5-a]pyridin-2-yl)-8-((methyl-d3)amino)-2,7-naphthyridin-3-yl)cyclopropane-1-carboxamide]
8 | ≤ 500 | ≤ 100 | – | [2H]C([2H])([2H])Nc1ncc(-c2nc3ccc(OC)cn3n2)c2cc(NC(=O)[C@H]3C[C@H]3C)ncc12 [Example 570, (1S,2R)—N-(5-(6-methoxy-[1,2,4]triazolo[1,5-a]pyridin-2-yl)-8-((methyl-d3)amino)-2,7-naphthyridin-3-yl)-2-methylcyclopropane-1-carboxamide]
9 | ≤ 500 | ≤ 100 | – | [2H]C([2H])([2H])Nc1ncc(-c2nc3ccc(N4CCOCC4)cn3n2)c2cc(NC(=O)C3(F)CC3)ncc12 [Example 571, 1-fluoro-N-(8-((methyl-d3)amino)-5-(6-morpholino-[1,2,4]triazolo[1,5-a]pyridin-2-yl)-2,7-naphthyridin-3-yl)cyclopropane-1-carboxamide]
10 | ≤ 500 | ≤ 100 | – | [2H]C([2H])([2H])Nc1ncc(-c2nc3ccc(N4CCOCC4)cn3n2)c2cc(NC(=O)[C@H]3C[C@H]3C)ncc12 [Example 572, (1S,2R)-2-methyl-N-(8-((methyl-d3)amino)-5-(6-morpholino-[1,2,4]triazolo[1,5-a]pyridin-2-yl)-2,7-naphthyridin-3-yl)cyclopropane-1-carboxamide]
11 | ≤ 500 | ≤ 100 | – | [2H]C([2H])([2H])Nc1ncc(-c2nc3ccc(N4CCO[C@@H](C)C4)cn3n2)c2cc(NC(=O)C3(F)CC3)ncc12 [Example 576, (S)-1-fluoro-N-(8-((methyl-d3)amino)-5-(6-(2-methylmorpholino)-[1,2,4]triazolo[1,5-a]pyridin-2-yl)-2,7-naphthyridin-3-yl)cyclopropane-1-carboxamide]
12 | > 500 | ≤ 100 | – | [2H]C([2H])([2H])Nc1ncc(-c2nc3ccc(C)cn3n2)c2cc(NC(=O)C3(F)CC3)ncc12 [Example 577, 1-fluoro-N-(8-((methyl-d3)amino)-5-(6-methyl-[1,2,4]triazolo[1,5-a]pyridin-2-yl)-2,7-naphthyridin-3-yl)cyclopropane-1-carboxamide]
13 | ≤ 500 | ≤ 100 | – | [2H]C([2H])([2H])Nc1ncc(-c2nc3ccc(C)cn3n2)c2cc(NC(=O)[C@@H]3C[C@@H]3F)ncc12 [Example 578, (1S,2S)-2-fluoro-N-(8-((methyl-d3)amino)-5-(6-methyl-[1,2,4]triazolo[1,5-a]pyridin-2-yl)-2,7-naphthyridin-3-yl)cyclopropane-1-carboxamide]
14 | ≤ 500 | ≤ 100 | – | CCNc1ncc(-c2nc3ccc(N4CCOCC4)cn3n2)c2cc(NC(=O)[C@H]3C[C@H]3C)ncc12 [Example 579, (1S,2R)—N-(8-(ethylamino)-5-(6-morpholino-[1,2,4]triazolo[1,5-a]pyridin-2-yl)-2,7-naphthyridin-3-yl)-2-methylcyclopropane-1-carboxamide]
15 | ≤ 500 | ≤ 100 | – | CCNc1ncc(-c2nc3ccc(N4CCOCC4)cn3n2)c2cc(NC(=O)C3(F)CC3)ncc12 [Example 580, N-(8-(ethylamino)-5-(6-morpholino-[1,2,4]triazolo[1,5-a]pyridin-2-yl)-2,7-naphthyridin-3-yl)-1-fluorocyclopropane-1-carboxamide]
16 | ≤ 500 | ≤ 100 | – | CCNc1ncc(-c2nc3ccc(N4CC5CN(C)CC(C4)O5)cn3n2)c2cc(NC(=O)C3CC3)ncc12 [Example 581, N-(8-(ethylamino)-5-(6-(7-methyl-9-oxa-3,7-diazabicyclo[3.3.1]nonan-3-yl)-[1,2,4]triazolo[1,5-a]pyridin-2-yl)-2,7-naphthyridin-3-yl)cyclopropanecarboxamide]
17 | ≤ 500 | ≤ 100 | – | CNc1ncc(-c2nc3ccc(N4CC5CN(C6CC6)CC(C4)O5)cn3n2)c2cc(NC(=O)C3CC3)ncc12 [Example 582, N-(5-(6-(7-cyclopropyl-9-oxa-3,7-diazabicyclo[3.3.1]nonan-3-yl)-[1,2,4]triazolo[1,5-a]pyridin-2-yl)-8-(methylamino)-2,7-naphthyridin-3-yl)cyclopropanecarboxamide]
18 | ≤ 500 | ≤ 100 | – | CNc1ncc(-c2nc3ccc(N4CC5COCC(C5)C4)cn3n2)c2cc(NC(=O)C3CC3)ncc12 [Example 583, N-(5-(6-(3-oxa-7-azabicyclo[3.3.1]nonan-7-yl)-[1,2,4]triazolo[1,5-a]pyridin-2-yl)-8-(methylamino)-2,7-naphthyridin-3-yl)cyclopropanecarboxamide]
19 | ≤ 500 | ≤ 100 | – | CNc1ncc(-c2nc3ccc(N4CC5CCC(C4)O5)cn3n2)c2cc(NC(=O)C3CC3)ncc12 [Example 584, N-(5-(6-(8-oxa-3-azabicyclo[3.2.1]octan-3-yl)-[1,2,4]triazolo[1,5-a]pyridin-2-yl)-8-(methylamino)-2,7-naphthyridin-3-yl)cyclopropanecarboxamide]
20 | ≤ 500 | ≤ 100 | – | CNc1ncc(-c2nc3ccc(N4CCOCC4)cn3n2)c2cc(Nc3ccc(C(C)(C)O)c(F)n3)ncc12 [Example 589, 2-(2-fluoro-6-((8-(methylamino)-5-(6-morpholino-[1,2,4]triazolo[1,5-a]pyridin-2-yl)-2,7-naphthyridin-3-yl)amino)pyridin-3-yl)propan-2-ol]
21 | ≤ 500 | ≤ 100 | – | CNc1ncc(-c2nc3ccc(N4CCO[C@@H](C)C4)cn3n2)c2cc(NC(=O)[C@@H]3C[C@@H]3C)ncc12 [Example 590, (1R,2S)-2-methyl-N-(8-(methylamino)-5-(6-((S)-2-methylmorpholino)-[1,2,4]triazolo[1,5-a]pyridin-2-yl)-2,7-naphthyridin-3-yl)cyclopropane-11-carboxamide]
22 | ≤ 500 | ≤ 100 | – | CNc1ncc(C#Cc2ccc(OC)cc2)c2cc(NC(=O)C3CC3)ncc12 [Example 591, N-(5-((4-methoxyphenyl)ethynyl)-8-(methylamino)-2,7-naphthyridin-3-yl)cyclopropanecarboxamide]
23 | > 500 | – | ≤ 100 | CNc1ncc(C#CC2CCOCC2)c2cc(NC(=O)C3CC3)ncc12 [Example 592, N-(8-(methylamino)-5-((tetrahydro-2H-pyran-4-yl)ethynyl)-2,7-naphthyridin-3-yl)cyclopropanecarboxamide]
24 | ≤ 500 | – | ≤ 100 | CNc1ncc(C#Cc2cccc(O)c2)c2cc(NC(=O)C3CC3)ncc12 [Example 593, N-(5-((3-hydroxyphenyl)ethynyl)-8-(methylamino)-2,7-naphthyridin-3-yl)cyclopropanecarboxamide]
25 | ≤ 500 | – | ≤ 100 | CCNc1ncc(C#Cc2ccc(OC)cn2)c2cc(NC(=O)C3CC3)ncc12 [Example 594, N-(8-(ethylamino)-5-((5-methoxypyridin-2-yl)ethynyl)-2,7-naphthyridin-3-yl)cyclopropanecarboxamide]
